From PubChem BioAssay (NCI)
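Where inhibition never reached the appropriate level, the endpoint shown equals the highest concentration tested. Otherwise, values were interpolated linearly from a five-concentration, 48-hour dose response in 96-well plates. GI50: concentration for 50% inhibition of growth. At the TGI there is no net growth.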

Key:
Experiment in all cases: DTP human tumour cell line panel, 48 h
HCC-2998 colon = tested on: HCC-2998 colon
HOP-62 NSCLC = tested on: HOP-62 NSCLC
HOP-92 NSCLC = tested on: HOP-92 NSCLC
HT29 colon = tested on: HT29 colon
IGROV1 ovarian = tested on: IGROV1 ovarian
LOX IMVI melanoma = tested on: LOX IMVI melanoma
SF-295 CNS = tested on: SF-295 CNS
SNB-75 CNS = tested on: SNB-75 CNS
UACC-62 melanoma = tested on: UACC-62 melanoma
UO-31 renal = tested on: UO-31 renal

| Structure (SMILES) | GI50 (HCC-2998 colon) [µM] | TGI (HCC-2998 colon) [µM] | GI50 (HOP-62 NSCLC) [µM] | TGI (HOP-62 NSCLC) [µM] | GI50 (HOP-92 NSCLC) [nM] | TGI (HOP-92 NSCLC) [µM] | GI50 (HT29 colon) [µM] | TGI (HT29 colon) [µM] | GI50 (IGROV1 ovarian) [µM] | TGI (IGROV1 ovarian) [µM] | GI50 (LOX IMVI melanoma) [nM] | TGI (LOX IMVI melanoma) [µM] | GI50 (SF-295 CNS) [µM] | TGI (SF-295 CNS) [µM] | GI50 (SNB-75 CNS) [µM] | TGI (SNB-75 CNS) [µM] | GI50 (UACC-62 melanoma) [nM] | TGI (UACC-62 melanoma) [µM] | GI50 (UO-31 renal) [µM] | TGI (UO-31 renal) [µM] |
| --- | --- | --- | --- | --- | --- | --- | --- | --- | --- | --- | --- | --- | --- | --- | --- | --- | --- | --- | --- | --- |
| CC(=O)[O-].[Mn+3].[O-]c1ccccc1C=NCCN=Cc1ccccc1[O-] | > 100 | > 100 | > 100 | > 100 | > 100000 | > 100 | 92.3 | > 100 | > 100 | > 100 | > 100000 | > 100 | > 100 | > 100 | > 100 | > 100 | > 100000 | > 100 | > 100 | > 100 |
| COC(=O)c1c(O)c([N+](=O)[O-])cc2c1c1c(n2Cc2ccccc2)C(=O)c2ccccc2C1=O | 11.2 | 23.2 | 21.3 | 49.8 | 8080 | 63 | 18.9 | > 100 | 35.1 | > 100 | > 100000 | > 100 | 52.1 | > 100 | > 100 | > 100 | 30900 | > 100 | 21.1 | > 100 |
| S=C(Nc1ccc(Cl)cc1)Nc1ccc(-c2nc3ccccc3o2)cc1 | 13.8 | 26.7 | 26 | 57.4 | 17200 | 50.4 | 17.4 | 41.8 | 10.9 | 37.4 | 11700 | 26.3 | 13.7 | 42.8 | 37.7 | 72.2 | 12700 | 27.7 | 11.6 | 26.1 |
| COc1ccc(/C=C2\CC(C)CC3C2=NN(C(C)=O)C3c2ccc(OC)cc2)cc1 (stereo not given) | 17.5 | 40 | 20 | 41.4 | 17200 | 44.2 | 9.08 | 40.2 | 31.6 | > 100 | 17600 | 38.3 | 18.2 | 41.8 | 17.7 | 53.3 | 17000 | 35.3 | 19 | 64.8 |
| O=C(O)c1ccc(S(=O)(=O)Nc2ccc3oc4c(c3c2)C(=O)CCC4)cc1 | > 100 | > 100 | > 100 | > 100 | > 100000 | > 100 | > 100 | > 100 | > 100 | > 100 | > 100000 | > 100 | > 100 | > 100 | > 100 | > 100 | > 100000 | > 100 | > 100 | > 100 |
| CC(=O)O[C@H]1CCC2[C@@H]3CCC4=C(O)C(=O)C(C#N)C[C@]4(C)C3CC[C@@]21C (stereo not given in full) |  | > 100 |  | > 100 |  | 8.33 |  | > 100 |  | > 100 |  | > 100 |  | > 100 |  | 72.1 |  | > 100 |  | > 100 |
| N#CSc1c[nH]c2ccc(/C=C/C(=O)/C=C(/C=C/c3ccc4[nH]cc(SC#N)c4c3)OB(F)F)cc12 | 3.72 | 19.7 | 3.86 | 38.9 | 321 | 1.5 | 0.394 | 2.38 | 0.352 | 1.37 | 202 | 0.571 | 3.47 | 14.4 | 2.38 | 11.1 | 1200 | 2.85 | 0.212 | 0.808 |
| CCN(CC)c1ccc2c(c1)Oc1nc(N)c(C#N)c(N)c1C2Sc1ccc(OC)cc1 (stereo not given) | 1.81 | 3.43 | 1.88 | 3.43 | 1860 | 3.37 | 2.1 | 4.27 | 1.9 | 3.9 | 1560 | 3.07 | 1.93 | 3.6 | 1.51 | 2.89 | 1720 | 3.34 | 1.52 | 2.85 |
| CN(C)C/C=C/C(=O)Nc1cc2c(Nc3ccc(F)c(Cl)c3F)ncnc2cc1OCCOC(F)F | 1.16 | 2.68 | 1.31 | 5.61 | 58.5 | 1.13 | 0.422 | 5 | < 0.01 | 0.39 | 958 | 2.25 | 1.72 | 9.86 | 0.162 | 2.47 | 1450 | 4.46 | < 0.01 | 1.78 |
| Cc1cc(O)c(C2=NN(c3ccc(S(N)(=O)=O)cc3)C(c3ccc(N(C)C)cc3)C2)c(C)c1Cl (stereo not given) | 14.8 | 30.9 | 18.6 | 34.8 | 10300 | 23.6 | 10.9 | 25.8 | 18.3 | 59 | 14800 | 32 | 19.2 | 44.4 | 17 | 42.2 | 9920 | 25.8 | 12.7 | 29.4 |
| CN(CC#N)C1CCCC[C@H]1O (stereo not given in full) |  | > 100 |  | > 100 |  | > 100 |  | > 100 |  | > 100 |  | > 100 |  | > 100 |  | > 100 |  | > 100 |  | > 100 |
| CN(C)CCNC(=O)c1cccc2c(Nc3ccc(S(N)(=O)=O)cc3)c3ccccc3nc12 |  | 6.92 |  | 11.6 |  | 7.27 |  | 8.35 |  | 16 |  | 2.59 |  | 8.02 |  | 4.48 |  | 3.42 |  | 7.44 |
| CN1CCN(c2cc(C(=O)Nc3cc4cc(-c5cnn(C)c5)ccc4cn3)ccn2)CC1 | 0.276 | 4.57 | 0.207 | 12.7 | 160 | 3.6 | 0.182 | 0.442 | 0.0581 | 3.3 | 93.3 | 0.262 | 0.306 | 13.2 | 0.137 | 0.833 | 192 | 0.646 | 0.122 | 0.532 |
| CC(=O)N1c2ccccc2NC2=C(C(=O)N(Cc3ccccc3)C2(C)C)C1c1ccco1 (stereo not given) | 0.608 | > 7.95 | 1.25 | > 25 | 1020 | > 25 | 0.755 | > 25 | 0.893 | > 25 | 1010 | > 25 | 0.766 | > 6.83 | 0.841 | > 5.78 | 373 | > 25 | 1.23 | > 25 |
| Cc1ccc(NC(=O)C(=O)CC(=O)C2CCOC2=O)c(C)c1 (stereo not given) |  | > 100 |  | > 100 |  | > 100 |  | > 100 |  | > 100 |  | > 100 |  | > 100 |  | > 100 |  | > 100 |  | > 100 |
| O=S(=O)(N/N=C/c1cccc(Cl)c1Cl)c1ccccc1 |  | > 100 |  | > 100 |  | 82.5 |  | > 100 |  | > 100 |  | > 100 |  | > 100 |  | > 100 |  | > 100 |  | > 100 |
| CCn1cc(-c2ccnc3[nH]ccc23)c(-c2cccc(NC(=O)Nc3ccc(OCc4ccccc4)cc3)c2)n1 | 13.2 | > 25 | > 14.9 | > 25 | > 25000 | > 25 | 4.18 | > 20.3 | 18.1 | > 25 | 6010 | > 25 | 4.55 | > 25 | 4.35 | > 25 | 5890 | > 25 | 15 | > 25 |
| CN(CCc1ccccn1)c1nc(=[N+](C)C)ss1 |  | > 100 |  | > 100 |  | > 100 |  | > 100 |  | > 100 |  | > 100 |  | > 100 |  | > 100 |  | > 100 |  | > 100 |
| O=C(O)c1cc2ccccc2oc1=O |  | > 100 |  | > 100 |  | > 100 |  | > 100 |  | > 100 |  | > 100 |  | > 100 |  | > 100 |  | > 100 |  | > 100 |
| Nc1nc2cc3ccc(C4CC(O)C(CO)O4)cc3cc2c(=O)[nH]1 (stereo not given) | > 100 | > 100 | > 100 | > 100 | > 100000 | > 100 | > 100 | > 100 | > 100 | > 100 | > 100000 | > 100 | > 100 | > 100 | 49.6 | > 100 | > 100000 | > 100 | 94.6 | > 100 |
| C[C@@H]1Cc2c([nH]c3ccccc23)[C@@H](c2c(F)cc(NC3CN(CCCF)C3)cc2F)N1CC(F)(F)CO | 1.93 | 4 | 13.6 | 31.1 | 1150 | 6.36 | 3.7 | 15.3 | 2.77 | 10.8 | 1750 | 3.49 | 2.25 | 5.21 | 4.92 | 20.5 | 2350 | 5.77 | 3.7 | 16.5 |
| O=C(c1ccccc1)c1oc2ccc(Br)cc2c1-c1cnn(-c2ccccc2)c1 |  | > 100 |  | > 100 |  | > 100 |  | > 100 |  | > 100 |  | > 100 |  | > 100 |  | > 100 |  | > 100 |  | > 100 |
| CCCCCCCCCc1cc[n+](CC(=O)c2ccc([N+](=O)[O-])cc2)cc1 | 0.514 | 1.93 | 1.05 | 2.39 | 234 | 1.03 | 0.313 | 1.29 | 1.66 | 3.29 | 1660 | 3.19 | 1.44 | 2.79 | 1.12 | 2.36 | 1230 | 2.54 | 1.48 | 2.9 |
| CN(C)CCSc1cccc(-c2cc(-c3cccc(SCCN(C)C)c3)nc(SCCN(C)C)n2)c1 |  | 7.76 |  | 30.2 |  | 6.87 |  | 3.4 |  | 13.8 |  | 3.03 |  | 3.52 |  | 12.1 |  | 32 |  | 27.9 |
| O=C(Cc1nc2ccccc2s1)C(=O)Nc1cccc(Cl)c1 |  | > 100 |  | > 100 |  | > 100 |  | > 100 |  | > 100 |  | > 100 |  | > 100 |  | > 100 |  | > 100 |  | > 100 |
| O=S(=O)(SCc1ccccc1)C(c1ccccc1)c1ccccc1 |  | > 100 |  | > 100 |  | 35.5 |  | 71.4 |  | > 100 |  | > 100 |  | > 100 |  | > 100 |  | 85.7 |  | > 100 |
| CC1=C(C(=O)NCc2ccccc2)C(c2ccc([N+](=O)[O-])cc2)C(C(=O)NCc2ccccc2)=C(C)N1 |  | > 100 |  | > 100 |  | 73.6 |  | 33.9 |  | > 100 |  | 44.1 |  | > 100 |  | > 100 |  | 64.6 |  | > 100 |
| O=C(O)CCC/C=C\C[C@H]1C=CC(=O)/C1=C/C[C@@H](O)CCc1cccc(C(F)(F)F)c1 | 1.87 | 3.5 | 2.93 | 7.27 | 3320 | 8.2 | 2.69 | 6.41 | 3.41 | 13.6 | 1290 | 2.89 | 2.5 | 6.09 | 9.41 | 22.2 | 2290 | 6.94 | 1.68 | 3.16 |
| CC1=C(C(=O)Nc2cc(=O)n(C)c(=O)n2C)C(c2ccc([N+](=O)[O-])cc2)C(C(=O)Nc2cc(=O)n(C)c(=O)n2C)=C(C)N1 |  | > 100 |  | > 100 |  | 85.7 |  | > 100 |  | > 100 |  | > 100 |  | > 100 |  | > 100 |  | > 100 |  | > 100 |
